Earlier results, collected in US7732404B2 (priority 1999, dated 2010).

Tested on: mice
Details: mouse, in vivo, po

For `CCOC(=O)C(C)O` (stereo not shown) [Ethyl lactate, 2-hydroxypropanoic acid ethyl ester], the LD50 is listed as “higher than 5 g/kg”.
